Results taken from patent US7772225B2, “N-sulfamoyl-piperidineamides for the treatment or inhibition of obesity and related conditions” (Solvay Pharmaceuticals GmbH, priority 2005, dated 2010).

Tests used:
C57B1/6 mice = test: Acute in vivo food intake test in mice; details: 24 h food intake, 100 mg/kg/day oral gavage in two half doses, high caloric diet, male or female mice
Description: 2. Acute In Vivo Food Intake Test in Mice
The studies were carried out in male or female C57B1/6 mice (n=8-12 per group). The mice were kept on an inverted 12/12h light/dark cycle (lights on 22:00). They were allowed food (high caloric diet) and water ad libitum. Food intake and water consumption was measured daily. The test compound of Formula I was suspended in 1% methylcellulose in water and 2% (v/v) of Poloxamer 188 (Lutrol F68®) and administered by oral gavage at a dose of 100 mg/kg/day. One half of the dose was administered at 7.00-9.00 h; the remaining half of the dose was administered between 15.00-15.30 h.
In the test model described above, the test substances caused a decrease of the animals' 24 h food intake to the percentages of food intake when compared to control as given in the following Table 2.

[1] = target: T1, human carbonic anhydrase isoenzyme II (hCA II) (Homo sapiens, UniProt P00918); test: In vitro inhibition of human carbonic anhydrase isoenzyme II (hCA II), dansylamide fluorescence; assay type: binding; details: hCA II from erythrocytes 10^-7 M/L, read at 60 min 37° C., single measurements, read-out: IC50 (hCA II inhibiting effect in vitro)
T1 construct: human carbonic anhydrase isoenzyme II from erythrocytes (Sigma-Aldrich); purchased Sigma-Aldrich; host or cells: human erythrocytes (natural source)
Description: 1. In Vitro Inhibition of Human Carbonic Anhydrase Isoenzyme II (hCA II)
The test compounds of Formula I in 96 well microplates were diluted with aqua bidest by using an automatic pipettor (CyBiWell®). From the different dilution plates, aliquots of 20 μl were transferred to the 96 well black assay plates with a pipetting station (Tecan Genesis®). In a second step, 148 μl of potassium phosphate buffer (20 mM, pH 7.4) was added, and as a third step, 20 μl of enzyme solution (1 μM human carbonic anhydrase isoenzyme II from erythrocytes (Sigma-Aldrich), dissolved in potassium phosphate buffer) incubated for 60 min at room temperature and the fluorescence signal (Tecan Ultra® fluorescence reader; excitation wavelength: 280 nm; emission wavelength: 465 nm) read at the end of the preincubation period (FLU-1). After the preincubation time, 20 μl of aqueous dansylamide solution (1 mM dansylamide (Sigma-Aldrich), dissolved in hydrochloric acid) were added and the fluorescence signal read every 10 min for a period of 60 min at 37° C. For calculation, the fluorescence data of the time point 60 min (FLU-2) were used. The total volume of assay mixture amounted to 208 μl. The final concentration of carbonic anhydrase II was 10^−7 M/L, of dansylamide 2.25×10^−6 and of compounds from 10^−8 M/L up to 10^−5 M/L. Final concentration of DMSO as compound solvent was 0.1 mM. […]

NS(=O)(=O)N1CCC(N(C(=O)Nc2ccc(C(F)(F)F)cc2)c2cccnc2)CC1
melting point: 188 to 191 °C

NS(=O)(=O)N1CCC(NC(=O)Nc2ccc(F)cc2)CC1 [Example 1, 4-{[[(4fluorophenyl)amino]-carbonyl]amino}piperidine-1-sulfonamide]
food intake [% of control] (C57B1/6 mice): 83 % of control

NS(=O)(=O)N1CCC(n2c(=O)[nH]c3ccccc32)CC1 [Example 10]
IC50 [1]: 7.3 µM

NS(=O)(=O)N1CCC(N(Cc2ccccc2)C(=O)Nc2ccccc2)CC1 [Example 28]
IC50 [1]: 6.6 µM
